In one data set the test system is rat adjuvant arthritis. In words: Action on rat adjuvant arthritis (paw swelling inhibition). Conditions: mean of 4 rats (standard error); for Swelling inhibition (%), Primary inflammation (inoculated paw): measured 3 days after adjuvant inoculation; for Swelling inhibition (%), Secondary inflammation (uninoculated paw): measured 17 days after adjuvant inoculation. The class given is in vivo, male Lewis rats.

In data set [1] the target is T1, cyclooxygenase of sheep seminal vesicle gland (Ovis aries, UniProt P05979).
T1 construct: purchased CAYMAN CO., LTD; host or cells: sheep seminal vesicle gland
T1 sequence (P05979 25-600): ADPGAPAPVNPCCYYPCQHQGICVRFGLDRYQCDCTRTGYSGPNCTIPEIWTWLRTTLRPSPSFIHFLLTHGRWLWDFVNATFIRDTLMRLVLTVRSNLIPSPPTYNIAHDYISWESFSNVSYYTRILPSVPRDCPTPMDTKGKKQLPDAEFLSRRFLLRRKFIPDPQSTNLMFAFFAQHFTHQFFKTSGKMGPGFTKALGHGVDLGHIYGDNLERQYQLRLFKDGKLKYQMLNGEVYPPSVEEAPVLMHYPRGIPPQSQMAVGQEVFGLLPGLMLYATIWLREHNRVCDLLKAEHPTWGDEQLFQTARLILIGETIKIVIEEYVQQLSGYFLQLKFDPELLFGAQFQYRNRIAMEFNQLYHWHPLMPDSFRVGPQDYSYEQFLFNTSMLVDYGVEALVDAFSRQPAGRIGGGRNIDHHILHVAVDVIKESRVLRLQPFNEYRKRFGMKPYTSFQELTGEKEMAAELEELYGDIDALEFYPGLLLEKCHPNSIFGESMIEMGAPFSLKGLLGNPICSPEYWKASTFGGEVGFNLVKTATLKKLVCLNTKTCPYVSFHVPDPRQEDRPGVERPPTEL
In words: Action on activity of cyclooxygenase of sheep seminal vesicle gland. The class given is biochemical.
Description: Two hundred and fifty μl of an enzyme solution containing each test compound [5 mM triptophan, 200 nM hematin, 0.04% by weight Tween 20, 10 units of cyclooxygenase of sheep seminal vesicle gland (made by CAYMAN CO., LTD.), 2 μM [1-^14 C] arachidonic acid, 0.1 M Tris-hydrochloric acid buffer solution (pH: 8.0)], underwent a reaction at 25° C. for 6 minutes. The reaction was terminated by addition of 0.5 ml of a 0.2 M citric acid buffer solution (pH 3.0). [1-^14 C]arachidonic acid was extracted with ethyl acetate and separated by a thin layer chromatography. The radioactivity of the resulting arachidonic acid fraction was determined with a scintillation counter and the inhibition was calculated.
The inhibition value was calculated according to the following formula: [formula]

The test system of another data set is stress ulcer in mice. It is filed as in vivo. Conditions: for Ulcer index: 15 minutes before 7 h constraint under water immersion, average of sum of ulcer lengths. On the procedure: Six-week old male ddy […] (10 rats in one group) were completely fasted overnight and then loaded with constraint under water immersion for 7 hours. The rats were observed under a stereoscopic microscope to examine production of gastric ulcer. Sum (mm) of lengths of ulcers for each animal was taken as ulcer index. Ten mg, 30 mg or 100 mg of the instant compound was mixed with 0.15 ml of Tween 80 and suspended into a 0.5% by weight aqueous solution of gum arabic to give a total 10 ml of a suspension. The suspension was orally administered 15 minutes before loading of the constraint under water immersion. Indomethacin was used as a comparative drug.
The test results are shown in Table 3 in terms of an average value of ulcer indexes.

[2] abbreviates: 10 mg/kg oral once daily for 17 days.
Setting [3] is: comparative drug, 1 mg/kg, 1 mg/kg.
The mark [4] stands for this setting: comparative drug, 1 mg/kg, listed as indomethacin, 1 mg/kg.

Values joined by “and” are separate entries in the source; they are usually repeats but may differ in a detail not shown here. Equal values may be shown once. Read-outs that look alike come from different tables or passages of the source. A value given as a limit tells only on which side of the number the result lay.

Description for rat adjuvant arthritis: Seven-week old male Lewis rats (4 rats in one group) were injected under the plantar skin of the right hind paw with 0.6 mg/0.1 ml of a suspension of human tubercle bacillus, killed Mycobacterium tuberculosis H37 RA in liquid paraffin, thereby inducing adjuvant arthritis. The volume of the adjuvant-inoculated paw (primary inflammation) was measured 3 days after the inoculation of adjuvant and the volume of the adjuvant-uninoculated paw (secondary inflammation) 17 days after the inoculation of adjuvant. The swelling rate of each paw was calculated with respect to the volume of the paw before the inoculation of adjuvant. Ten mg of the instant compound was suspended in 10 ml of a 0.5% by weight aqueous solution of carboxymethyl cellulose and the oral administration of the obtained suspension began on day of adjuvant inoculating and continued for 17 days in a dose of 10 mg/kg one time per day.
The swelling rate and inhibition rate were calculated according to the following formulae: [formula]
Each value is an average value for 4 rats in one group and the value in parentheses is standard error.

`CS(=O)(=O)c1ccc(-c2cc(C(=N)Nc3ccccc3)sc2-c2ccc(F)cc2)cc1` [Example 2]: in the data set with rat adjuvant arthritis (setting [2]), the “Swelling inhibition (%), Primary inflammation (inoculated paw)” value (from here on “Swelling inhibition (%) … (inoculated paw)”) is given as 22.6 (5.24) % and the “Swelling inhibition (%), Secondary inflammation (uninoculated paw)” value (from here on “Swelling inhibition (%) … (uninoculated paw)”) is given as 28.4 (2.55) %.
In the same order, the values of `CS(=O)(=O)c1ccc(-c2cc(C(=N)Nc3ccc(F)cc3)sc2-c2ccc(F)cc2)cc1` [Example 6] are 26.3 (4.37) % and 57.2 (5.34) %.
Broadly, the inhibition is the change of the read-out against control, counted positive when it falls. Regarding `CS(=O)(=O)c1ccc(-c2cc(C(=N)Nc3cccc(Cl)c3)sc2-c2ccc(F)cc2)cc1` [Example 1, 5-[N^1-(3-chlorophenyl)amidino]-2-(4-fluorophenyl)-3-(4-methylsulfonylphenyl)thiophene], in data set [1] (10^-4 M, pH 8.0, 25° C., 6 minutes, average of two experiments), the inhibition at 100 µM was -2.2%. In data set [1] (10^-5 M, pH 8.0, 25° C., 6 minutes, average of two experiments), the inhibition at 10 µM was found to be 1.3%. In data set [1] (10^-6 M, pH 8.0, 25° C., 6 minutes, average of two experiments), the inhibition at 1 µM is 3.4%. Also, in data set [1] (even in 10^-4 M added group), the “Inhibition of cyclooxygenase activity (in words)” value is “did not inhibit the activity of cyclooxygenase”. The Ulcer index with stress ulcer in mice (10 mg/kg oral) turned out to be 6.5 mm; in the data set on stress ulcer in mice (30 mg/kg oral), 10.8 mm; in the data set with stress ulcer in mice (100 mg/kg oral) it was 9.6 mm. Moreover, the “Ulcer index / ulcer-exacerbating action (in words)” value in the data set with stress ulcer in mice (compared with solvent-given group, up to 100 mg/kg (Example 1), 1 and 3 mg/kg (indomethacin)) is “no evident difference in ulcer index was observed even in the group given 100 mg/kg”. The “Swelling inhibition (%) … (inoculated paw)” value with rat adjuvant arthritis (setting [2]) is 31.5% and 31.5 (0.91) %. Moreover, the “Swelling inhibition (%) … (uninoculated paw)” value in the data set on rat adjuvant arthritis (setting [2]) is 48.9% and 48.9 (3.58) %.
For the compound `CS(=O)(=O)c1ccc(-c2cc(C(=N)Nc3ccc(Cl)c(Cl)c3)sc2-c2ccc(F)cc2)cc1` [Example 17], in the data set on rat adjuvant arthritis (setting [2]), the “Swelling inhibition (%) … (inoculated paw)” value was 27.4 (7.02) % and the “Swelling inhibition (%) … (uninoculated paw)” value is given as 44.1 (3.83) %.
On to `CS(=O)(=O)c1ccc(-c2cc(C(=N)Nc3ccccc3Cl)sc2-c2ccc(F)cc2)cc1` [Example 3], for which, in the data set on rat adjuvant arthritis (setting [2]), the “Swelling inhibition (%) … (inoculated paw)” value is listed as 22.1 (4.94) % and the “Swelling inhibition (%) … (uninoculated paw)” value is 32.2 (10.8) %.
Consider `CS(=O)(=O)c1ccc(-c2cc(C(=N)Nc3ccc(Cl)cc3)sc2-c2ccc(F)cc2)cc1` [Example 4], for which, in the data set on rat adjuvant arthritis (setting [2]), the “Swelling inhibition (%) … (inoculated paw)” value is listed as 32.7 (7.40) % and the “Swelling inhibition (%) … (uninoculated paw)” value was 57.4 (8.54) %.
For `COc1ccc(NC(=N)c2cc(-c3ccc(S(C)(=O)=O)cc3)c(-c3ccc(F)cc3)s2)cc1` [Example 11], in the data set with rat adjuvant arthritis (setting [2]), the “Swelling inhibition (%) … (inoculated paw)” value was 35.0 (10.1) % and the “Swelling inhibition (%) … (uninoculated paw)” value is 37.1 (4.42) %.
Turning to `CS(=O)(=O)c1ccc(-c2cc(C(=N)Nc3ccc(F)c(Cl)c3)sc2-c2ccc(F)cc2)cc1` [Example 18], in the data set on rat adjuvant arthritis (setting [2]), the “Swelling inhibition (%) … (inoculated paw)” value is reported as 27.9 (3.09) % and the “Swelling inhibition (%) … (uninoculated paw)” value is reported as 48.9 (9.69) %.
For `CS(=O)(=O)c1ccc(-c2cc(C(=N)Nc3ccc(F)cc3F)sc2-c2ccc(F)cc2)cc1` [Example 12], in the data set with rat adjuvant arthritis (setting [2]), the “Swelling inhibition (%) … (inoculated paw)” value was 18.2 (2.73) % and the “Swelling inhibition (%) … (uninoculated paw)” value is 24.9 (10.2) %.
The matching figures for `CS(=O)(=O)c1ccc(-c2cc(C(=N)Nc3ccc(Br)cc3)sc2-c2ccc(F)cc2)cc1` [Example 7]: 36.1 (6.36) % and 48.8 (3.20) %.
For the compound `COc1ccc2c(c1)c(CC(=O)O)c(C)n2C(=O)c1ccc(Cl)cc1` [Indomethacin, indomethacin, reference compound], the “Inhibition of cyclooxygenase activity (in words)” value in data set [1] (10^-6 M) is on record as “completely inhibited the activity”. Also, the inhibition at 0.1 µM in data set [1] (10^-7 M, pH 8.0, 25° C., 6 minutes, average of two experiments) is 66.2%. In addition, the “Concentrations at which the activity of cyclooxygenase was inhibited” value in data set [1] (dependent on dosage) is ≥ 10^-8 M. In addition, in the data set with rat adjuvant arthritis (setting [3]), the “Swelling inhibition (%) … (inoculated paw)” value is recorded as 28.3 (4.10) % and the “Swelling inhibition (%) … (uninoculated paw)” value is reported as 43.6 (9.42) %. Moreover, in the data set on rat adjuvant arthritis (setting [4]), the “Swelling inhibition (%) … (inoculated paw)” value amounted to 28.8% and the “Swelling inhibition (%) … (uninoculated paw)” value is reported as 43.6%.
Consider `CS(=O)(=O)c1ccc(-c2cc(C(=N)Nc3cccc(F)c3)sc2-c2ccc(F)cc2)cc1` [Example 5], for which, in the data set on rat adjuvant arthritis (setting [2]), the “Swelling inhibition (%) … (inoculated paw)” value was 23.5 (4.75) % and the “Swelling inhibition (%) … (uninoculated paw)” value is 34.7 (4.26) %.
On to `CS(=O)(=O)c1ccc(-c2cc(C(=N)Nc3ccc(Cl)cc3Cl)sc2-c2ccc(F)cc2)cc1` [Example 13], for which, in the data set with rat adjuvant arthritis (setting [2]), the “Swelling inhibition (%) … (inoculated paw)” value was 16.7 (3.25) % and the “Swelling inhibition (%) … (uninoculated paw)” value is listed as 24.2 (5.05) %.

Source of the values: patent US6048890A, “Phenylamidinothiophene derivatives and anti-inflammatory agent containing the same” (Kaken Pharmaceutical Co., Ltd., priority 1995, dated 2000).
